We go through 63 sequences from article PMC11714206, “Massively Parallel Screening of Toll/Interleukin‐1 Receptor (TIR)‐Derived Peptides Reveals Multiple Toll‐Like Receptors (TLRs)‐Targeting Immunomodulatory Peptides” (Advanced Science, 2024).

Values joined by “and” are separate entries in the source; they are usually repeats but may differ in a detail not shown here. Equal values may be shown once.

The assay concerns the target T1, MyD88^TIR (Homo sapiens, UniProt Q99836).
T1 construct: MyD88 (residues 148–296); 6xHis; made in house; host or cells: E. coli BL21 (DE3)
Description: T‐Surf phage library (P8 and P3) selection against MyD88^TIR, four rounds, NGS read counts. In kind it is binding. The note with it: for P8_MyD88 Rank (after) / P8_MyD88 Rank (before): P8 library; for P3_MyD88 Rank (after) / P3_MyD88 Rank (before): P3 library; for Population: 4th round of selection against MyD88 TIR, share of NGS reads. The method in brief: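 Coat TIR domain 5 µg mL^−1 overnight; block 0.2% BSA/PBS 1 h, 4 °C; add phage library 1 h, RT; wash ×4 PBS/0.5% Tween‐20; elute 100 mM HCl, neutralize Tris; amplify in TG1, PEG‐precipitate. Repeat to round 4; barcode PCR, NovaSeq, count reads.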

Where [1] appears, read: P8_MyD88: rank by count after grouping.
The mark [2] stands for this setting: P8_MyD88: rank by count before grouping.
[3] abbreviates: 4R selection against MyD88, rank after grouping.
Where [4] appears, read: 4R selection against MyD88, rank before grouping.
The mark [5] stands for this setting: selection against MyD88, rank by count after grouping.
Setting [6] is: selection against MyD88, rank by count before grouping.
The mark [7] stands for this setting: P3_MyD88 pool: P3 T-Surf phage library.
[8] abbreviates: P8_MyD88: rank by NGS read count after grouping.
Where [9] appears, read: P8_MyD88: rank by NGS read count before grouping.
Setting [10] is: selection against MyD88, rank after grouping.
Setting [11] is: selection against MyD88, rank before grouping.
Setting [12] is: P3_MyD88: rank by count after grouping.
Where [13] appears, read: P3_MyD88: rank by count before grouping.
The mark [14] stands for this setting: P8_MyD88 pool: P8 T-Surf phage library.
Where [15] appears, read: selection against MyD88 TIR, rank by count after grouping.
[16] abbreviates: selection against MyD88 TIR, rank by count before grouping.

T1 sequence (Q99836 148-296): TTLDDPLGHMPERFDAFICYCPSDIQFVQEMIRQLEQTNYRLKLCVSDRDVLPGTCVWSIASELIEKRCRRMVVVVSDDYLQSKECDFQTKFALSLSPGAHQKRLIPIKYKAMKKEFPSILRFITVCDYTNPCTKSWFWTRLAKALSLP

For DPQDLDGCYERLVSLF, the “Rank (after)” value under setting [1] came out at 393. Also, the “Rank (before)” value under setting [2] was determined as 2837.

As to DPQDLGWFYERLISQILK, the “P8_MyD88 Rank (after)” value under setting [3] is on record as 624. Moreover, the “P8_MyD88 Rank (before)” value under setting [4] was determined as 2726.

Consider GEDTRYTYRPSACDP, for which the “P3_MyD88 Rank (after)” value under setting [5] was found to be 730. Further, under setting [6], the “P3_MyD88 Rank (before)” value is recorded as 1850.

As to WALDELLQILYARERF, under setting [1], the “Rank (after)” value is on record as 448. Besides, under setting [2], the “Rank (before)” value is 1466.

The sequence SSFREGLWRLLELRKK displayed a Population under setting [7] of 0.0032%.

ELDFASNMEQFWDRLYY: the “Rank (after)” value under setting [8] was determined as 935. The “Rank (before)” value under setting [9] turned out to be 3177.

Take YASSSWYLDELVRSLW: the “Rank (after)” value under setting [8] was 897. Besides, the “Rank (before)” value under setting [9] amounted to 1860.

Consider DSFFWGRLLYSLHVTE, for which the “Rank (after)” value under setting [8] is on record as 970. Moreover, the “Rank (before)” value under setting [9] is on record as 3074.

With DPQLLDWFYVRLVSLL, under setting [8], the “Rank (after)” value worked out at 1001. The “Rank (before)” value under setting [9] was 3022.

For the sequence NRWRNALTAAANLRGG, the “P3_MyD88 Rank (after)” value under setting [10] was determined as 510. In addition, the “P3_MyD88 Rank (before)” value under setting [11] is given as 3457.

On to WAQDALLKILYAKETM, for which, under setting [3], the “P8_MyD88 Rank (after)” value is reported as 614. Besides, the “P8_MyD88 Rank (before)” value under setting [4] came to 1562.

As for DHHLICRVAKRLNRKFW, the “Rank (after)” value under setting [12] is 129. The “Rank (before)” value under setting [13] was 631.

Take DPHGLEWIYERLVSLF: under setting [8], the “Rank (after)” value was found to be 923. Further, under setting [9], the “Rank (before)” value was found to be 2629.

As to LGYHWIEWEDFVVIED, the “Rank (after)” value under setting [8] is 872. For the same sequence, the “Rank (before)” value under setting [9] is given as 3293.

Turning to AWVWEYLLPNLVGPAG, the “P8_MyD88 Rank (after)” value under setting [3] is 668. Besides, the “P8_MyD88 Rank (before)” value under setting [4] is given as 2317.

Turning to YTALTNSGFHIFSANG, under setting [10], the “P3_MyD88 Rank (after)” value is given as 497. Further, the “P3_MyD88 Rank (before)” value under setting [11] was found to be 1664.

Regarding DFSHFWLFEAGGDAD, the “Rank (after)” value under setting [8] is 946. In addition, the “Rank (before)” value under setting [9] was found to be 2377.

Regarding SMTPLSDFWKELALVL, the “Rank (after)” value under setting [1] came to 97. Under setting [2], the “Rank (before)” value amounted to 101. Besides, the Population under setting [14] is 0.0231%.

With YTALNNMGFHTFRGND, the “P3_MyD88 Rank (after)” value under setting [5] was 705. Moreover, under setting [6], the “P3_MyD88 Rank (before)” value is on record as 1627.

Consider WDYASNVELFWGRMNY, for which the “P8_MyD88 Rank (after)” value under setting [3] turned out to be 586. In addition, the “P8_MyD88 Rank (before)” value under setting [4] amounted to 1640.

With NQWRNALTAAANLSGW, under setting [7], the Population was 0.00437% and 0.00378% and 0.0032%. Moreover, the “P8_MyD88 Rank (after)” value under setting [5] came to 734. In addition, under setting [6], the “P8_MyD88 Rank (before)” value is recorded as 3881.

As for DTILEKVQSIAPELLR, under setting [12], the “Rank (after)” value was determined as 401. Under setting [13], the “Rank (before)” value is 2092.

Regarding YLRADDSWFWEKLLQIA, the “P8_MyD88 Rank (after)” value under setting [10] is listed as 553. Moreover, the “P8_MyD88 Rank (before)” value under setting [11] was 2056.

DPQDLDWIYERLVCLF: the “P8_MyD88 Rank (after)” value under setting [5] stood at 732. Besides, under setting [6], the “P8_MyD88 Rank (before)” value is 2830.

In the case of SENYATSPWALEKAGKL, under setting [12], the “Rank (after)” value is on record as 423. Under setting [13], the “Rank (before)” value stood at 2984.

On to WDFASNMAQVWERLYY, for which, under setting [8], the “Rank (after)” value is 890. Besides, the “Rank (before)” value under setting [9] stood at 1596.

Turning to DPQDQEWFYERLFSHV, under setting [1], the “Rank (after)” value is listed as 438. In addition, the “Rank (before)” value under setting [2] was 2970.

For LKVESWRQALEKADKL, under setting [7], the Population was determined as 0.00408%.

Consider EAFAVHVWSSKANSLVG, for which the “P3_MyD88 Rank (after)” value under setting [5] is recorded as 727. Moreover, the “P3_MyD88 Rank (before)” value under setting [6] was determined as 2193.

As to SEDTRNNFLYHLYEAL, the “Rank (after)” value under setting [1] amounted to 100. The “Rank (before)” value under setting [2] amounted to 106. In addition, the Population under setting [14] is 0.022%.

As for RTLLENLWASVDISHK, under setting [5], the “P3_MyD88 Rank (after)” value is 732. In addition, under setting [6], the “P3_MyD88 Rank (before)” value is on record as 2643.

With YASSSWYLDELCIFC, the “Rank (after)” value under setting [8] was 951. The “Rank (before)” value under setting [9] is given as 1858.

PQDLDWFYERLESLF: under setting [8], the “Rank (after)” value came to 1019. The “Rank (before)” value under setting [9] was determined as 3427.

Regarding SSFREALWRLLGLSEK, the “P3_MyD88 Rank (after)” value under setting [15] is on record as 279. In addition, the “P3_MyD88 Rank (before)” value under setting [16] is on record as 3225.

As to RISAFHKQLVMAVKAQ, under setting [3], the “P3_MyD88 Rank (after)” value was 674. Besides, the “P3_MyD88 Rank (before)” value under setting [4] amounted to 2608.

With LGFNWMDWEYFVGIEG, the “P8_MyD88 Rank (after)” value under setting [3] was found to be 671. For the same sequence, under setting [4], the “P8_MyD88 Rank (before)” value came out at 3216.

Consider VQWADPWFWDKLAYEK, for which, under setting [8], the “Rank (after)” value turned out to be 1016. Moreover, the “Rank (before)” value under setting [9] was found to be 2215.

Regarding PSDVRKKTGSLAKAFA, the “P3_MyD88 Rank (after)” value under setting [15] is 285. Besides, the “P3_MyD88 Rank (before)” value under setting [16] is listed as 2735.

With SRDYASSPWALDELVL, under setting [12], the “Rank (after)” value was determined as 146. Moreover, the “Rank (before)” value under setting [13] was determined as 3095.

Regarding YYLDPSHLRKQSGW, the “P3_MyD88 Rank (after)” value under setting [5] amounted to 720. The “P3_MyD88 Rank (before)” value under setting [6] is listed as 1453.

On to LGYHWIDWEYYVGIEN, for which the “Rank (after)” value under setting [8] is 992. For the same sequence, the “Rank (before)” value under setting [9] was determined as 3275.

In the case of YAFTCHLHRYLVQRCV, the “P3_MyD88 Rank (after)” value under setting [5] is reported as 692. Besides, the “P3_MyD88 Rank (before)” value under setting [6] is 1481.

As for SENYATSAWALEELVL, the “P3_MyD88 Rank (after)” value under setting [15] came out at 214. Moreover, the “P3_MyD88 Rank (before)” value under setting [16] stood at 2961.

YLLLRVLQTIFLRRTD: the “Rank (after)” value under setting [8] was 898. Further, under setting [9], the “Rank (before)” value amounted to 1967.

With WDFGTAGKNPGSAWHH, the “Rank (after)” value under setting [8] was determined as 910. Also, the “Rank (before)” value under setting [9] is given as 1573.

With LGYHWMEWEYVVGIED, under setting [8], the “Rank (after)” value turned out to be 960. Further, the “Rank (before)” value under setting [9] turned out to be 3299.

For DYASSTWWLRELLYA, under setting [1], the “Rank (after)” value is 434. Moreover, under setting [2], the “Rank (before)” value is given as 1060.

Turning to NQWRNALTEAAHLSGW, the “P3_MyD88 Rank (after)” value under setting [3] is given as 663. For the same sequence, the “P3_MyD88 Rank (before)” value under setting [4] stood at 3520.

YAASPWWFDDIQQIQLFWD: the “P8_MyD88 Rank (after)” value under setting [10] came to 543. For the same sequence, the “P8_MyD88 Rank (before)” value under setting [11] amounted to 1720.

Consider SDLRVVDDGSVSPLAM, for which the “P3_MyD88 Rank (after)” value under setting [5] was 711. In addition, under setting [6], the “P3_MyD88 Rank (before)” value is recorded as 3005.

Consider NQWRNSRTAAANLSGW, for which the “Rank (after)” value under setting [12] was 122. For the same sequence, the “Rank (before)” value under setting [13] was determined as 3476.

Regarding DHHLDLPRGKANKPEILD, the “P3_MyD88 Rank (after)” value under setting [10] worked out at 555. Under setting [11], the “P3_MyD88 Rank (before)” value is recorded as 2035.

As for SSFREGLWRLMALIKK, the “P3_MyD88 Rank (after)” value under setting [3] is given as 600. Moreover, the “P3_MyD88 Rank (before)” value under setting [4] is on record as 3188.

EGFTGFLYEALTRYGI: the “Rank (after)” value under setting [1] is listed as 174. For the same sequence, the “Rank (before)” value under setting [2] is 197.

Turning to GEDTLYTFTGHLQATL, the “P3_MyD88 Rank (after)” value under setting [5] was 719. Besides, the “P3_MyD88 Rank (before)” value under setting [6] is recorded as 1830.

As for PQDLDWFYERLVSQM, the “P8_MyD88 Rank (after)” value under setting [5] is given as 716. Besides, the “P8_MyD88 Rank (before)” value under setting [6] was 3426.

Consider LVAHEISKKMKIFATF, for which the Population under setting [7] was found to be 0.00291%.

Take DTKLKKGESIAPALMR: the “P3_MyD88 Rank (after)” value under setting [5] was found to be 704. Also, the “P3_MyD88 Rank (before)” value under setting [6] came out at 2101.

Regarding DFLNWFYERLVSLFL, the “P8_MyD88 Rank (after)” value under setting [3] turned out to be 622. Moreover, under setting [4], the “P8_MyD88 Rank (before)” value was found to be 2352.

Turning to EDSIFYAVSSGALDEP, the “P8_MyD88 Rank (after)” value under setting [5] came to 697. Besides, under setting [6], the “P8_MyD88 Rank (before)” value amounted to 3174.

Regarding YELDFSHFWLFEARGDA, the “P8_MyD88 Rank (after)” value under setting [3] was 636. The “P8_MyD88 Rank (before)” value under setting [4] is reported as 1944.

Regarding DPQDLARSYERLVRLF, the “P8_MyD88 Rank (after)” value under setting [3] turned out to be 610. Also, the “P8_MyD88 Rank (before)” value under setting [4] is reported as 2690.

For the sequence NHHLDLPRGKAIKPEILG, under setting [7], the Population came to 0.00524%.
